# Source: patent publication US20060142393A1, “Bis(thio-hydrazide amides) for treatment of hyperplasia” (priority 2004, published 2006)
# Read-outs that look alike come from different tables or passages of the source.
# Experiments:
# HL-60 = experiment: MTS growth inhibition, HL-60 cells; type: cell-based; conditions: Homo sapiens, HL-60, 72 h, MTS assay
# Method: (§1) The in vitro activity of the compounds was assessed in a selected set of human cancer cell lines. Three pairs of tumor cell lines (non-resistant/resistant) were used to identify novel potent antitumor compounds which are capable of overcoming multi-drug resistance.
# (§2) HL-60, a model of myeloid leukemia, was obtained from ATCC (ATCC CCL-240); and HL60/TX1000 was isolated in vitro by subculturing HL-60 in progressively higher concentration of Taxol™. HL-60/TX1000 cells over-express mdr-1 mRNA and p-glycoprotein (PCP), as determined by western blot and immunofluorescence labeling with antiPGP antibodies. The cells are cross-resistant to Taxol™, Vincristine, Adriamycin, Etoposide and Doxorubicin.
# (§3) All experiments were performed on exponentially growing cell culture. Cell densities were 2.5×10^4 cells/ml in all experiment except special.
# [1] = MTS cytotoxicity, 39SK normal fibroblast; type: cell-based; conditions: human, 39SK cells (normal fibroblast), MTS assay, read-out: In vitro Cytotoxicity IC50, 39SK
# CEM = experiment: MTS cytotoxicity, CEM T cell leukemia; conditions: Homo sapiens, CCRF-CEM, 72 h, read-out: In vitro Cytotoxicity IC50, CEM
# Method: (§4) The in vitro activity of the compounds was determined in a selected set of human leukemia cell lines. CEM (T-cell leukemia), Jurkat (T-cell leukemia), K562 (chronic myelocyte), THP-1 (monocyte), SB (B-cell leukemia), U937 (lymphoma) were purchased from ATCC. H2 leukemia cell line was a gift from Harvard Medical School. The cell lines were maintained in RPMI1640(GIBCO) supplemented with 10% FCS, 100 units/ml penicillin, 100 ug/ml streptomycin, and 2 mM L-glutamine. […] All experiments were performed on exponentially growing cell culture. Cell densities were 2.5×10^4 cells/mL in all experiments.
# (§5) Final concentrations […] were obtained by diluting the stock solution directly into the tissue culture medium. Cells were incubated with varying concentrations of compounds for 72 hours and the IC50 was determined by MTS (i.e. […]) assay.
# U937 = experiment: MTS cytotoxicity, U937 lymphoma; type: cell-based; conditions: Homo sapiens, U-937, 72 hours, MTS assay, read-out: In vitro Cytotoxicity IC50, U937
# Method: as §4, §5
# THP-1 = experiment: MTS cytotoxicity, THP-1 monocyte; conditions: Homo sapiens, THP-1, 72 h, read-out: In vitro Cytotoxicity IC50, THP-1
# Method: as §4, §5
# HL-60/TX1000 = experiment: MTS growth inhibition, multi-drug resistant HL-60/TX1000 cells; type: cell-based, human; conditions: for IC50: Homo sapiens, HL60/TX1000, 72 hours, MTS assay, MDR cell line
# Method: as §1, §2, §3
# K-562 = experiment: MTS cytotoxicity, K-562 chronic myelocyte; type: cell-based; conditions: Homo sapiens, K562, 72 hours, MTS assay, read-out: In vitro Cytotoxicity IC50, K-562
# Method: as §4, §5
# Jurkat = experiment: MTS cytotoxicity, Jurkat T cell leukemia; conditions: Homo sapiens, 72 h, read-out: In vitro Cytotoxicity IC50, Jurkat
# Method: as §4, §5
# SB = experiment: MTS cytotoxicity, SB B cell leukemia; conditions: Homo sapiens, 72 h, read-out: In vitro Cytotoxicity IC50, SB
# Method: as §4, §5
# Bowes/OV2 = experiment: MTS growth inhibition, Vincristine resistant Bowes/OV2 cells; type: cell-based, human; conditions: for IC50: Homo sapiens, 72 hours, MTS assay, MDR cell line
# Method: as §1
# (§6) Bowes is a melanoma cell line; and Bowes/OV2 is a Vincristine resistant Bowes melanoma cell line.
# as §3
# MES-SA/DX5 = experiment: MTS growth inhibition, multi-drug resistant MES-SA/DX5 cells; type: cell-based, human; conditions: for IC50: Homo sapiens
# Method: (§7) The in vitro activity of the compounds was assessed in a selected set of human cancer cell lines.
# (§8) MES—SA, a model of uterine sarcoma, is sensitive to a number of chemotherapeutic agents, including Doxorubicin, Dactinomycin, Mitomycin C, Taxol™ and Bleomycin, but resistant to Vinblastine and Cisplatin. MES—SA/DX5 was established in the presence of increasing concentrations of Doxorubicin. […] Both MES—SA and MES—SA/Dx5 were purchased from ATCC (ATCC CRL-1976 and ATCC CRL-1977, respectively).
# as §3
# H2 = experiment: MTS cytotoxicity, H2 leukemia; type: cell-based; conditions: Homo sapiens, 72 hours, MTS assay, read-out: In vitro Cytotoxicity IC50, H2
# Method: as §4, §5
# [2] = tested on: MDA-435 human breast tumor; experiment: MDA-435 human breast carcinoma tumors in nude mice, combination with Epothilone D; type: in vivo; conditions: Compound (1) 50 mg/kg + Epothilone D 5 mg/kg intravenously, 3 times a week for 3 weeks
# Method: A supplemented media was prepared from 50% DMEM/Dulbecco Modified Eagle Medium (High Glucose), 50% RPMI 1640, 10% FBS/Fetal Bovine Serum (Hybridoma Tested; Sterile Filtered), 1% L-Glutamine, 1% Penicillin-Streptomycin, 1% MEM Sodium Pyruvate and 1% MEM Non-Essential Amino Acids. FBS was obtained from Sigma Chemical Co. and other ingredients were obtained from Invitrogen Life Technologies, USA). The supplemental media was warmed to 37° C and 50 ml of media was added to a 175 cm^2 tissue culture flask.
# The cells used in the assay were MDA-435 Human Breast Carcinoma from the American Type Culture Collection. 1 vial of MDA-435 cells from the liquid nitrogen frozen cell stock was removed. The frozen vial of cells was immediately placed into a 37° C. water bath and gently swirled until thawed. The freeze-vial was wiped with 70% ethanol and cells were immediately pipetted into the 175 cm^2 tissue culture flask containing supplemented media. […]
# CEM cells = experiment: Human T-cell leukemia (CEM) growth in SCID mice, FACS quantitation of CEM cells in blood; type: in vivo; conditions: 25 mg/kg intraperitoneally twice a day for 3 weeks; blood at day 33; CEM cells in white blood cells by FACS
# Source text: Human T-cell leukemia cell line, CEM, was obtained from American Type Culture Collection. Eight-week old female SCID mice were purchased from Charles Rive Laboratories (Wilmington, Mass.). FITC conjugated anti-human […] was obtained from BD […]). ACK lysing buffer was obtained from BioWhittaker. […] After three weeks treatment, blood was taken from mouse retro-orbital sinus at day 33. Red blood cells were partially lyzed with ACK lysing buffer. The cells were stained with FITC conjugated anti-human […] antibody for one hour at 4° C. FACS analysis was performed to quantitate the amount of CEM cells in the blood. White blood cells were gated for FACS analysis.
# Bowes = experiment: MTS growth inhibition, Bowes melanoma cells; type: cell-based; conditions: Homo sapiens, 72 h, MTS assay
# Method: as §1, §6, §3
# [3] = tested on: MES-SA/DX5 human sarcoma tumor; experiment: MES-SA/DX5 human uterine sarcoma tumors in nude mice; type: in vivo; conditions: 15 mg/kg intravenously, 3 times a week for 3 weeks
# Method: A supplemented media was prepared from 50% DMEM/Dulbecco Modified Eagle Medium (High Glucose), 50% RPMI 1640, 10% FBS/Fetal Bovine Serum (Hybridoma Tested; Sterile Filtered), 1% L-Glutamine, 1% Penicillin-Streptomycin, 1% MEM Sodium Pyruvate and 1% MEM Non-Essential Amino Acids. FBS was obtained from Sigmna Chemical Co. and other ingredients were obtained from Invitrogen Life Technologies, USA). The supplemental media was warmed to 37° C. and 50 ml of media was added to a 175 cm^2 tissue culture flask.
# The cells used in the assay were multi-drug resistant MES—SA/DX-5 Human Uterine Sarcoma cells from the American Type Culture Collection. 1 vial of MES—SA/DX-5 cells from the liquid nitrogen frozen cell stock was removed. The frozen vial of cells was immediately placed into a 37° C. water bath and gently swirled until thawed. The freeze-vial was wiped with 70% ethanol and cells were immediately pipetted into the 175 cm^2 tissue culture flask containing supplemented media. […]
# The flask was washed with 10 ml of sterile room temperature phosphate buffered saline (PBS). […] The supernatant was aspirated and the cell pellet was resuspended in 10 ml of supplemented media and the cells were counted. […]
# The above procedure for trypsinizing and centrifuging the cells were followed. The supernatant was aspirated and the cell pellet was resuspended in 10 ml of sterile PBS and the cells were counted. […]
# MES-SA = experiment: MTS growth inhibition, MES-SA cells; type: cell-based; conditions: Homo sapiens, 72 h, MTS assay
# Method: as §7, §8, §3
# [4] = MES-SA/Dx5, 72 hours, MTS assay, MDR cell line, read-out: IC50 MES-SA/DX5
# [5] = MES-SA/Dx5, Example 2, protocol of Example 1, MDR uterine sarcoma cell line, read-out: IC50 MES/DX5
# [6] = MES-SA/Dx5, read-out: IC50 MES/DX5
smiles,measurement,setting,value
"CC(=O)O[C@H]1C(=O)[C@@]2(C)[C@H]([C@H](OC(=O)c3ccccc3)[C@]3(O)C[C@H](OC(=O)[C@H](O)[C@@H](NC(=O)c4ccccc4)c4ccccc4)C(C)=C1C3(C)C)[C@]1(OC(C)=O)CO[C@@H]1C[C@@H]2O [Taxol ™, paclitaxel]",IC50,HL-60,2 to 5 nM
same,IC50 at 72 h,[1],1000 nM
same,IC50,CEM,10 nM
same,IC50,U937,5 nM
same,IC50,THP-1,5 nM
same,IC50,HL-60/TX1000,5000 nM
same,IC50,K-562,5 nM
same,IC50,Jurkat,1 nM
same,IC50,SB,1 nM
same,IC50,Bowes/OV2,5000 nM
same,IC50,MES-SA/DX5; [4],5000 nM
same,IC50,MES-SA/DX5; [5],5000 nM
same,IC50,H2,5 nM
CN(NC(=O)CC(=O)NN(C)C(=S)c1ccccc1)C(=S)c1ccccc1 [Compound (1)],IC50,HL-60,400 nM
same,IC50,CEM,10 nM
same,effect on anti-tumor activity of Epothilone D,[2]; FIG. 2,significantly enhanced anti-tumor activity of Epothilone D
same,toxicity of combination with Epothilone D (body weight),[2]; FIG. 3,without increasing toxicity
same,IC50,HL-60/TX1000,50 nM
same,specificity against HL60/TX1000,HL-60/TX1000; IC50 HL-60 / IC50 HL-60/TX1000 (=0.4/0.05),8
same,IC50,SB,5 nM
same,IC50,Bowes/OV2,10 nM
same,specificity against Bowes/OV2,Bowes/OV2; IC50 Bowes / IC50 Bowes/OV2 (=0.2/0.01),20
same,% circulating leukemia cells,CEM cells,~4.6%
same,IC50,Bowes,200 nM
same,IC50,"MES-SA/DX5; MES-SA/Dx5, 72 h, read-out: IC50 MES-SA/DX5",5 nM
same,specificity against MES-SA/DX5,MES-SA/DX5; IC50 MES-SA / IC50 MES-SA/DX5 (=0.05/0.005),10
CN(NC(=O)CC(=O)NN(C)C(=S)C1CC1)C(=S)C1CC1 [(18)],IC50,MES-SA/DX5; [5],10 nM
COc1cccc(C(=S)N(C)NC(=O)C(C)C(=O)NN(C)C(=S)c2cccc(OC)c2OC)c1OC [Compound (12)],IC50,MES-SA/DX5; [6],5 nM
CCN(NC(=O)C(C)C(=O)NN(CC)C(=S)c1ccccc1)C(=S)c1ccccc1 [Compound (16)],"toxicity (body weight suppression, behavior changes)",[3],no obvious toxicity
same,tumor growth of MES/SA-DX5 compared to vehicle treated mice,[3]; FIG. 1,significantly inhibits the tumor growth
same,IC50,MES-SA/DX5; [6],50 nM
CN(NC(=O)CC(=O)NN(C)C(=S)c1cc(Cl)ccc1Cl)C(=S)c1cc(Cl)ccc1Cl [Compound (14)],IC50,MES-SA/DX5; [6],10 nM
CC[C@]1(O)C[C@H]2CN(CCc3c([nH]c4ccccc34)[C@@](C(=O)OC)(c3cc4c(cc3OC)N(C=O)[C@H]3[C@@](O)(C(=O)OC)[C@H](OC(C)=O)[C@]5(CC)C=CCN6CC[C@]43[C@@H]65)C2)C1 [Vincristine],IC50,HL-60,2 to 5 nM
same,IC50 at 72 h,[1],1000 nM
same,IC50,CEM,5 nM
same,IC50,U937,5 nM
same,IC50,THP-1,5 nM
same,IC50,MES-SA,2 to 5 nM
same,IC50,HL-60/TX1000,5000 nM
same,IC50,K-562,5 nM
same,IC50,Jurkat,1 nM
same,IC50,SB,1 nM
same,IC50,Bowes/OV2,5000 nM
same,IC50,Bowes,2 to 5 nM
same,IC50,MES-SA/DX5; [4],5000 nM
same,IC50,H2,5 nM
COc1ccc(C)c(C(=S)N(C)NC(=O)CC(=O)NN(C)C(=S)c2cc(OC)ccc2C)c1 [Compound (13)],IC50,MES-SA/DX5; [6],50 nM
